Results taken from the NIST ThermoML archive (doi:10.1016/j.fluid.2007.09.028).
Numbers after ± are expanded uncertainties.

Tests used:
[1] = xn = mol fraction of the nth substance listed; details: 101 kPa, Liquid, x1 = 1
[2] = 101 kPa, Liquid

Row | SMILES | mass density ([1]; 288.15 K) [kg/m3] | mass density ([1]; 293.15 K) [kg/m3] | mass density ([1]; 298.15 K) [kg/m3] | mass density ([1]; 303.15 K) [kg/m3] | mass density ([1]; 308.15 K) [kg/m3] | mass density ([1]; 313.15 K) [kg/m3] | mass density ([2]; 288.15 K) [kg/m3] | mass density ([2]; 293.15 K) [kg/m3] | mass density ([2]; 298.15 K) [kg/m3] | mass density ([2]; 303.15 K) [kg/m3] | mass density ([2]; 308.15 K) [kg/m3] | mass density ([2]; 313.15 K) [kg/m3] | mass density ([2]; 318.15 K) [kg/m3] | mass density ([2]; 323.15 K) [kg/m3] | mass density ([1]; 318.15 K) [kg/m3] | mass density ([1]; 323.15 K) [kg/m3]
1 | CCC(C)O (stereo unspecified) [butan-2-ol] + Clc1ccccc1 | 810.689 ± 0.55 | 806.646 ± 0.56 | 802.528 ± 0.56 | 798.326 ± 0.56 | 794.03 ± 0.57 | 789.632 ± 0.58 | – | – | – | – | – | – | – | – | – | –
2 | CCCCCO [pentan-1-ol] | – | – | – | – | – | – | 818.282 ± 0.54 | 814.635 ± 0.55 | 810.968 ± 0.55 | 807.278 ± 0.55 | 803.558 ± 0.56 | 799.817 ± 0.56 | – | – | – | –
3 | CCC(C)O (stereo unspecified) [butan-2-ol] | – | – | – | – | – | – | 810.689 ± 0.55 | 806.646 ± 0.56 | 802.528 ± 0.56 | 798.326 ± 0.56 | 794.03 ± 0.57 | 789.632 ± 0.58 | – | – | – | –
4 | Clc1ccccc1 [chlorobenzene] | – | – | – | – | – | – | 1111.81 ± 0.3 | 1106.43 ± 0.29 | 1101.04 ± 0.28 | 1095.64 ± 0.28 | 1090.23 ± 0.27 | 1084.82 ± 0.26 | 1079.42 ± 0.25 | 1073.97 ± 0.24 | – | –
5 | CC(C)(C)O [2-methylpropan-2-ol] + Clc1ccccc1 | – | – | – | 775.412 ± 0.49 | 770.193 ± 0.49 | 764.884 ± 0.5 | – | – | – | – | – | – | – | – | 759.488 ± 0.51 | 754.015 ± 0.52
6 | CCCO [propan-1-ol] | – | – | – | – | – | – | 807.69 ± 0.46 | 803.703 ± 0.46 | 799.692 ± 0.47 | 795.65 ± 0.47 | 791.576 ± 0.48 | 787.466 ± 0.49 | – | – | – | –
7 | CCCCO [butan-1-ol] + Clc1ccccc1 | 813.373 ± 0.45 | 809.573 ± 0.45 | 805.762 ± 0.46 | 801.923 ± 0.47 | 798.053 ± 0.47 | 794.147 ± 0.48 | – | – | – | – | – | – | – | – | – | –
8 | CCCO [propan-1-ol] + Clc1ccccc1 | 807.69 ± 0.46 | 803.703 ± 0.46 | 799.692 ± 0.47 | 795.65 ± 0.47 | 791.576 ± 0.48 | 787.466 ± 0.49 | – | – | – | – | – | – | – | – | – | –
9 | CC(C)(C)O [2-methylpropan-2-ol] | – | – | – | – | – | – | – | – | – | 775.412 ± 0.49 | 770.193 ± 0.49 | 764.884 ± 0.5 | 759.488 ± 0.51 | 754.015 ± 0.52 | – | –
10 | CCCCCO [pentan-1-ol] + Clc1ccccc1 | 818.282 ± 0.54 | 814.635 ± 0.55 | 810.968 ± 0.55 | 807.278 ± 0.55 | 803.558 ± 0.56 | 799.817 ± 0.56 | – | – | – | – | – | – | – | – | – | –
11 | CCCCO [butan-1-ol] | – | – | – | – | – | – | 813.373 ± 0.45 | 809.573 ± 0.45 | 805.762 ± 0.46 | 801.923 ± 0.47 | 798.053 ± 0.47 | 794.147 ± 0.48 | – | – | – | –
